Test results taken from patent publication US8481459B2, “Chemical inhibitors of ethylene biosynthesis” (Academia Sinica, priority 2010, dated 2013).

System: gene expression in etiolated eto1-4 seedlings
Assay: Transcriptional profiling (ATH1 GeneChip microarray) of etiolated eto1-4 seedlings
Type: in vivo, Arabidopsis thaliana
Details: ratio eto1-4 treated to eto1-4 (no treatment)
Experimental: For chemical treatments, seeds were sown on 0.5×MS agar medium supplemented with 10 μM chemicals (AVG, compounds 9393, 9370, and 7303) or DMSO (as control). Arabidopsis seeds were stratified in the dark at 4° C. for 4 days, then germinated in the dark for 3 days at 22° C. Approximately 2,000 etiolated seedlings of the wild type or eto1-4 were used to collect tissues for preparation of total RNA in each microarray experiment with Arabidopsis ATH1 GeneChip (Affymetrix). Extraction of RNA followed an established protocol (Chang, et al. (1993) Plant Mol. Biol. Rep. 11, 113-117). Total RNA (10 μg) was used to prepare biotinylated cRNA for hybridization to ATH1 GeneChip in the experiments disclosed herein. Experiments were repeated by 2 independent biological duplicates, and candidate genes present in both experiments were selected for further analysis. The MASS method was used for data analysis and normalization by all sample medium. Candidate genes were selected by the following criteria. First, genes with 1.5-fold differential expression between the wild type and eto1-4 were selected as the master gene pool, which was then used for comparison in treatments with AVG and individual exemplary compounds. Data were presented in hierarchical clustering and Venn diagram format. Agilent GeneSpring GX and Bioconductor software were used to analyze the expression profile data. Gene Ontology descriptions were generated by GeneSpring GX and further referred to the TAR GO database. Raw data are available in the GEO database (http://www.ncbi.nlm.nih.gov/geo) with Accession no. GSE20897.
The filtered and normalized expression data set from 22810 probes on the ATH1 Genechip was used for hierarchical clustering of gene expression profiles for comparison between AVG and the exemplary invention compounds in eto1-4. It was identified that 1,446 genes show at least 1.5-fold difference in expression between the WT and eto1-4 and used them as the master gene pool for clustering analysis (FIG. 7A). […] These genes likely contribute to the etiolated phenotype of eto1-4 by responding to elevated endogenous ethylene. To determine whether the exemplary compounds have specific r overlapping functions with AVG to suppress the eto1-4 phenotype, genes that are regulated by individual exemplary invention compounds and AVG for Venn diagram analysis were clustered (FIG. 7B). More than 63% of genes (356/561 for compound 9393; 389/561 for compound 9370; 399/561 for compound 7303; FIG. 7B) with expression associated with AVG were co-regulated by the exemplary invention compounds, which indicates an overlap function in suppression of the ethylene phenotype in eto1-4. […] Next genes co-regulated by all of the exemplary invention compounds and AVG were examined by performing a clustering analysis using the co-regulated genes identified in FIG. 7B: 356 (compound 9393 vs AVG), 389 (compound 9370 vs AVG) and 399 genes (compound 7303 vs AVG). It was uncovered that 276 genes were co-regulated by all of the exemplary invention compounds and AVG (FIG. 7C and Table 2). On the basis of GO descriptions generated by Gene Spring GX and TAIR database, the 276 genes were divided into subgroups related to their biological functions (Table 2). […] In addition, stress- and pathogenesis-related genes were among the co-regulated genes, possibly because ethylene is involved in both biotic and abiotic stresses.
Genes (1446 non-redundant loci) were selected by 1.5-fold differential expression between eto1-4 and WT as the master pool for analysis. These genes were used for comparison between chemical treatments by AVG and the exemplary invention compounds. The finalized 276 genes that are co-regulated by AVG and all of the exemplary invention compounds are shown. Locus ID also present in Nemhauser et al. (Nemhauser, et al. (2006) Cell 126, 467-475).

COc1ccc(C2CC(=O)c3cnc(Nc4ccccc4)nc3C2)cc1 (centres unmarked) [Compound 7303]
Signal Fold Change AT3G14850, unknown biological function: 0.13
Signal Fold Change AT3G15890 protein kinase: 2.14
Signal Fold Change AT3G16450 jacalin lectin protein: 3.13
Signal Fold Change AT3G16470 jacalin lectin protein: 6.91
Signal Fold Change AT3G16690, unknown biological function: 4.80
Signal Fold Change AT3G17680, unknown biological function: 0.17
Signal Fold Change AT3G20130 cytochrome P450: 1.89
Signal Fold Change AT3G21770 peroxidase 30: 1.84
Signal Fold Change AT3G22620 lipid transfer protein: 2.70
Signal Fold Change AT3G23150 ethylene receptor, putative (ETR2): 0.18
Signal Fold Change AT3G23800, unknown biological function: 0.33
Signal Fold Change AT3G24670, unknown biological function: 0.38
Signal Fold Change AT3G25710 bHLH protein: 2.51
Signal Fold Change AT3G25730 AP2-containing transcription factor: 0.21
Signal Fold Change AT3G25980 mitotic spindle checkpoint protein: 2.49
Signal Fold Change AT3G27580 protein kinase: 0.46
Signal Fold Change AT3G28290, unknown biological function: 0.27
Signal Fold Change AT3G29250 short-chain dehydrogenase: 20.57
Signal Fold Change AT3G30775 proline oxidase, mitochondrial: 4.43
Signal Fold Change AT3G43270 pectinesterase protein: 0.33
Signal Fold Change AT3G44820, response to light stimulus, phototropic-responsive NPH3 protein: 2.99
Signal Fold Change AT3G44990 endo-xyloglucan transferase: 0.21
Signal Fold Change AT3G45710 proton-dependent oligopeptide transport (POT) protein: 4.30
Signal Fold Change AT3G46130 myb transcription factor (MYB48): 2.20
Signal Fold Change AT3G46700 UDP-glucosyl transferase: 7.33
Signal Fold Change AT3G47210, unknown biological function: 3.50
Signal Fold Change AT3G47250, unknown biological function: 5.15
Signal Fold Change AT3G49780 phytosulfokines 3 (PSK3): 9.23
Signal Fold Change AT3G50660 steroid 22-alpha-hydroxylase: 4.40
Signal Fold Change AT3G51410, unknown biological function: 0.21
Signal Fold Change AT3G51970, unknown biological function: 3.02
Signal Fold Change AT3G52180 protein tyrosine phosphatase: 0.22
Signal Fold Change AT3G52920 expressed protein (defense response): 3.88
Signal Fold Change AT3G53540, unknown biological function: 0.41
Signal Fold Change AT3G56480, unknown biological function: 2.86
Signal Fold Change AT3G58710 WRKY transcription factor: 2.61
Signal Fold Change AT3G59370, unknown biological function: 3.33
Signal Fold Change AT3G59710 short-chain dehydrogenase: 0.48
Signal Fold Change AT3G59900, unknown biological function: 0.39
Signal Fold Change AT3G60520, unknown biological function: 0.30
Signal Fold Change AT3G61160 shaggy-related protein kinase beta/ASK-beta (ASK2): 5.02
Signal Fold Change AT4G00730 anthocyaninless2: 0.54
Signal Fold Change AT4G01410, unknown biological function: 0.54
Signal Fold Change AT4G03140 short-chain dehydrogenase: 0.23
Signal Fold Change AT4G08300, unknown biological function: 4.13
Signal Fold Change AT4G09570 calcium-dependent protein kinase: 0.34
Signal Fold Change AT4G10910, unknown biological function: 4.49
Signal Fold Change AT4G11190 disease resistance-responsive protein: 9.71
Signal Fold Change AT4G11280 ACC synthase 6: 2.00
Signal Fold Change AT4G11310 cysteine proteinase: 17.92
Signal Fold Change AT4G12080, unknown biological function: 2.09
Signal Fold Change AT4G12410 auxin-responsive protein: 3.30
Signal Fold Change AT4G12480 lipid transfer protein: 0.06
Signal Fold Change AT4G13210, unknown biological function: 0.27
Signal Fold Change AT4G15550 UDP-glucose:indole-3-acetate beta-D-glucosyltransferase: 0.39
Signal Fold Change AT4G15920, unknown biological function: 23.20
Signal Fold Change AT4G17220 expressed protein (cytoskeleton organization and biogenesis): 2.48
Signal Fold Change AT4G18340 glycosyl hydrolase: 3.43
Signal Fold Change AT4G23410 senescence-associated protein: 1.83
Signal Fold Change AT4G25780, unknown biological function: 9.00
Signal Fold Change AT4G26010 peroxidase: 0.49
Signal Fold Change AT4G28085, unknown biological function: 3.16
Signal Fold Change AT4G31000, unknown biological function: 0.51
Signal Fold Change AT4G32920, unknown biological function: 2.81
Signal Fold Change AT4G34560, unknown biological function: 2.51
Signal Fold Change AT4G34760 auxin-responsive protein: 0.22
Signal Fold Change AT4G35060 copper chaperone: 3.90
Signal Fold Change AT4G35150, unknown biological function: 0.31
Signal Fold Change AT4G36520, unknown biological function: 2.99
Signal Fold Change AT4G37220 stress-responsive protein: 15.33
Signal Fold Change AT4G38690, signal transduction, 1-phosphatidylinositol: 3.39
Signal Fold Change AT4G39210 ADP-glucose pyrophosphorylase: 0.34
Signal Fold Change AT4G39800 inositol-3-phosphate synthase isozyme 1: 2.69
Signal Fold Change AT4G39840, unknown biological function: 0.36
Signal Fold Change AT5G01210, unknown biological function: 0.37
Signal Fold Change AT5G01300, unknown biological function: 2.28
Signal Fold Change AT5G02260, cell wall organization and biogenesis, expansin (EXP9): 0.23
Signal Fold Change AT5G02540 short-chain dehydrogenase: 0.33
Signal Fold Change AT5G03160 DNAJ heat shock N-terminal domain-containing protein: 2.24
Signal Fold Change AT5G04080, unknown biological function: 3.07
Signal Fold Change AT5G05180, unknown biological function: 1.98
Signal Fold Change AT5G06200, unknown biological function: 1.99
Signal Fold Change AT5G08240, unknown biological function: 2.56
Signal Fold Change AT5G08260 serine carboxypeptidase S10 protein: 0.35
Signal Fold Change AT5G08370 alpha-galactosidase: 3.99
Signal Fold Change AT5G09980 expressed protein (defense response): 0.28
Signal Fold Change AT5G10720 sensory transduction histidine kinase: 0.36
Signal Fold Change AT5G11540, unknown biological function: 6.69
Signal Fold Change AT5G12170, response to cadmium ion, expressed protein: 0.34
Signal Fold Change AT5G13870 endo-xyloglucan transferase: 0.19
Signal Fold Change AT5G13910 AP2/EREBP-like transcription factor: 0.40
Signal Fold Change AT5G14780 formate dehydrogenase: 0.41
Signal Fold Change AT5G14920 gibberellin-regulated protein: 0.33
Signal Fold Change AT5G15290, unknown biological function: 2.99
Signal Fold Change AT5G15530 biotin carboxyl carrier protein 2: 0.43
Signal Fold Change AT5G15830 bZIP transcription factor protein: 4.29
Signal Fold Change AT5G18470, unknown biological function: 0.24
Signal Fold Change AT5G18670 beta-amylase: 0.63
Signal Fold Change AT5G18860, unknown biological function: 3.13
Signal Fold Change AT5G18970, unknown biological function: 3.98
Signal Fold Change AT5G19890 peroxidase: 0.03
Signal Fold Change AT5G19930, unknown biological function: 1.84
Signal Fold Change AT5G20410 monogalactosyldiacylglycerol synthase: 2.86
Signal Fold Change AT5G22310, unknown biological function: 0.46
Signal Fold Change AT5G22860 serine carboxypeptidase S28 protein: 3.07
Signal Fold Change AT5G23750, unknown biological function: 4.93
Signal Fold Change AT5G24870, unknown biological function: 2.71
Signal Fold Change AT5G25140 cytochrome P450: 6.66
Signal Fold Change AT5G25160 zinc finger (C2H2 type) protein: 2.70
Signal Fold Change AT5G25190 ethylene-responsive element-binding protein: 0.25
Signal Fold Change AT5G34940, unknown biological function: 0.44
Signal Fold Change AT5G37300, unknown biological function: 5.67
Signal Fold Change AT5G38930, unknown biological function: 0.16
Signal Fold Change AT5G39860 bHLH protein: 4.44
Signal Fold Change AT5G41900 hydrolase: 4.02
Signal Fold Change AT5G44410, unknown biological function: 2.89
Signal Fold Change AT5G44580, unknown biological function: 0.14
Signal Fold Change AT5G46890 lipid transfer protein: 3.10
Signal Fold Change AT5G47240, unknown biological function: 8.92
Signal Fold Change AT5G47330 palmitoyl protein thioesterase protein: 2.34
Signal Fold Change AT5G47450 major intrinsic protein: 2.81
Signal Fold Change AT5G47950, unknown biological function: 4.37
Signal Fold Change AT5G48490 lipid transfer protein: 3.78
Signal Fold Change AT5G48900, unknown biological function: 0.58
Signal Fold Change AT5G49900, unknown biological function: 3.82
Signal Fold Change AT5G50720 ABA-responsive protein (HVA22e): 2.97
Signal Fold Change AT5G52120 SKP1 interacting partner 3 protein: 11.57
Signal Fold Change AT5G53190, unknown biological function: 7.32
Signal Fold Change AT5G53830, unknown biological function: 0.30
Signal Fold Change AT5G56320, cell wall organization and biogenesis, expansin (EXP14): 4.57
Signal Fold Change AT5G58660, unknown biological function: 0.40
Signal Fold Change AT5G59540 oxidoreductase: 0.34
Signal Fold Change AT5G63450 cytochrome P450: 16.44
Signal Fold Change AT5G63650 serine/threonine protein kinase: 0.59
Signal Fold Change AT5G65970 seven transmembrane MLO protein: 2.84
Signal Fold Change AT5G66310, microtubule-based movement, kinesin motor protein: 0.48
Signal Fold Change AT5G66400 dehydrin (RAB18): 1.10
Signal Fold Change AT5G66440, unknown biological function: 0.32
Signal Fold Change AT5G66460 (1-4)-beta-mannan endohydrolase: 0.52
Signal Fold Change AT5G66780, unknown biological function: 1.48
